The test system of data set [1] is NCI-60 panel. To be noted: average response from all cell lines tested, cited from earlier work; for GI50: read-out: Potency, Mean GI50.
Data set [2] deals with Huh-7. The data set can be described thus: MTT cell viability assay, Huh-7. In kind it is cell-based. To be noted: Homo sapiens, Huh-7, 72 h, read-out: EC50 cell viability, Liver Huh-7. (In general: Tetrazolium assays rely on reduction of a dye to a coloured formazan, in cell work by metabolically active cells.)
Data set [3] relates to Huh-7. Description: Caspase-Glo 3/7 induction, Huh-7. Format: cell-based, human.
The test system of data set [4] is HepG2 cells. Description: Cell viability with pan-caspase inhibitor Z-VAD-FMK co-treatment. Format: cell-based, human. To be noted: Z-VAD-FMK 20 μM pre-incubation 60 min, then 30 μM compound for 24 h.
The test system of another data set is ACHN. The data set can be described thus: MTT cell viability assay, ACHN. Format: cell-based. As to conditions: Homo sapiens, 72 h, read-out: EC50 cell viability, Kidney ACHN.
For another data set, the target named is Raf-1 kinase. To be noted: read-out: IC50 recombinant Raf-1 kinase inhibition; cited from earlier work.
In data set [5] the target is soluble epoxide hydrolase (sEH). To be noted: read-out: IC50 against sEH; cited from earlier work.
The subject of the next data set is T47D. The data set can be described thus: MTT cell viability assay, T47D. As to conditions: Homo sapiens, 72 h, read-out: EC50 cell viability, Breast T47D. In kind it is cell-based.
The subject of data set [6] is HepG2 cells. Description: Mitochondrial membrane depolarization and AIF release. In kind it is cell-based, human. As to conditions: 30 μM, 6 h.
Data set [7] deals with HepG2. The data set can be described thus: Caspase-Glo 3/7 induction, HepG2. In kind it is cell-based, human.
The subject of a further data set is SKBR3. The data set can be described thus: MTT cell viability assay, SKBR3. To be noted: Homo sapiens, SK-BR-3, 72 h, read-out: EC50 cell viability, Breast SKBR3. Format: cell-based.
Another data set deals with PC-3. The data set can be described thus: MTT cell viability assay, PC-3. In kind it is cell-based. As to conditions: Homo sapiens, PC-3, 72 h, read-out: EC50 cell viability, Prostate PC-3.
Data set [8] relates to HepG2. The data set can be described thus: MTT cell viability assay, HepG2. In kind it is cell-based, human.
In data set [9] the test system is HepG2 cells. The data set can be described thus: Cell cycle analysis. In kind it is cell-based, human. As to conditions: 30 μM, 24-h exposure.
The test system of data set [10] is oncogenic b-Raf (V600E) kinase. To be noted: relative to sorafenib; cited from earlier work.
The target in another data set is T1, EPHA1 (Homo sapiens, UniProt P21709).
T1 sequence (P21709 26-976): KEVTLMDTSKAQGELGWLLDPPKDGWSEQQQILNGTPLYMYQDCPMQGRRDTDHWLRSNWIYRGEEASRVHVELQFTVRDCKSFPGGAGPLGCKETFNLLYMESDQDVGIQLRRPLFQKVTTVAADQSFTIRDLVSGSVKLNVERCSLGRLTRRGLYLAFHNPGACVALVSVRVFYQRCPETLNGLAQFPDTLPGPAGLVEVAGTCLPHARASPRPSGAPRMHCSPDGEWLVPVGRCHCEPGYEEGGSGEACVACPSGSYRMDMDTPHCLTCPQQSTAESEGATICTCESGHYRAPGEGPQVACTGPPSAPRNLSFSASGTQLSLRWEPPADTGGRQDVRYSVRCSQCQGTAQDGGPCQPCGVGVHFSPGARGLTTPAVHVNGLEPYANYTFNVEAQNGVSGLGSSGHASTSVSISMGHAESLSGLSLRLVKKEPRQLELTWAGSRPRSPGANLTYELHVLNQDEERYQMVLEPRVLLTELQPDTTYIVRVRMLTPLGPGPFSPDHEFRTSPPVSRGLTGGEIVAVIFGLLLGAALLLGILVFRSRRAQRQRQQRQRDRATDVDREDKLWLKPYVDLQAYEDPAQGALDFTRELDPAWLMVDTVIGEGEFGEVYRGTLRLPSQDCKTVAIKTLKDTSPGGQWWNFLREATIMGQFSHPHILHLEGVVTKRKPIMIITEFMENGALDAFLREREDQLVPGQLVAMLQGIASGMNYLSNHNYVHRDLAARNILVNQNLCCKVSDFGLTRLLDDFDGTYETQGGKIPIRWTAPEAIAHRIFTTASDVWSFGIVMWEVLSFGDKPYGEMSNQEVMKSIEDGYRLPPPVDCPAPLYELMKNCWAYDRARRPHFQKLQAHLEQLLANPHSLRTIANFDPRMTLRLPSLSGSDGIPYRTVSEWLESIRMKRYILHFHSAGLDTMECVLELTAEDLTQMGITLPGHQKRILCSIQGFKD
Description: KinaseSeeker kinase screen, EPHA1. In kind it is binding. As to conditions: 10 μM, compared with sorafenib.

The next data set has as its system KM12 (colon cancer). Description: NCI-60 human tumor cell line screen, KM12. Format: cell-based.
The test system of data set [11] is NCI-60 panel. To be noted: average response from all cell lines tested.
A further data set has as its target FGFR2 (Homo sapiens, UniProt P21802). The data set can be described thus: KinaseSeeker kinase screen, FGFR2. Format: binding. To be noted: 10 μM, compared with sorafenib.
For the next data set, the system named is STAT3 phosphorylation. Description: Western blot, STAT3 phosphorylation. Format: cell-based, human. To be noted: 10 μM, 24 h exposure. (In general: A western blot detects proteins with antibodies after separation by electrophoresis.)
A short description of data set [12]: Pharmacokinetic study, cassette oral administration in mice. In kind it is in vivo. To be noted: oral 1 mg/kg.

Each structure is given as a SMILES string. Read-outs that look alike come from different tables or passages of the source.

What is called GI50 is the concentration that inhibits growth by half. What is called EC50 is the concentration at which the effect is half-maximal. One may read the IC50 as the concentration that gives 50% inhibition.

Sequence of FGFR2 (P21802 22-821): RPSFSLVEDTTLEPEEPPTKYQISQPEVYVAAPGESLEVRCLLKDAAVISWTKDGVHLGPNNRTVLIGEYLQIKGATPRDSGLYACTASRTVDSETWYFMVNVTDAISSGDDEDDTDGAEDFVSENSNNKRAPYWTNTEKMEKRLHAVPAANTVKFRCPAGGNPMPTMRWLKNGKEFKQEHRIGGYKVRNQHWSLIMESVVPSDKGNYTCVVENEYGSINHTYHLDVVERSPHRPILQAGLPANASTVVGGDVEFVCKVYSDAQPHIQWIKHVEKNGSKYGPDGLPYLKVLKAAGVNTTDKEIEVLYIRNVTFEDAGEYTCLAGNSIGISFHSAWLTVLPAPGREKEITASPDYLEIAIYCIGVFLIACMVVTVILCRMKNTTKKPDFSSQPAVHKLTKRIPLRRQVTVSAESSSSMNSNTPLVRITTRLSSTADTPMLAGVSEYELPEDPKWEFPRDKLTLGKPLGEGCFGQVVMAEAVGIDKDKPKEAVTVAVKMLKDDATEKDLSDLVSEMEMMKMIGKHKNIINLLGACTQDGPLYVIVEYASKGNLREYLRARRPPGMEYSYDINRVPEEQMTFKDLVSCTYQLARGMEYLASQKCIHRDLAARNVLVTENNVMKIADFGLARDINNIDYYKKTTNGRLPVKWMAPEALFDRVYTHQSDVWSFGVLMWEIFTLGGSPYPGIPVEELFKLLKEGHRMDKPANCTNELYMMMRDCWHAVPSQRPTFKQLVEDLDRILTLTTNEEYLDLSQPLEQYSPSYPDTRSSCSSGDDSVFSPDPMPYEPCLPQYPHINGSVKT

For `C#Cc1cccc(Nc2ncnc3cc(OCCOC)c(OCCOC)cc23)c1` [Erlotinib (Tarceva®)], in the data set on NCI-60 panel [1], the “Potency, Mean TGI50” value is 59 µM and the GI50 was 5.5 µM.
`COc1cc2ncnc(Nc3ccc(F)c(Cl)c3)c2cc1OCCCN1CCOCC1` [Gefitinib (Iressa®)]: in the data set with NCI-60 panel [1], the “Potency, Mean TGI50” value was 19 µM and the GI50 is 3.2 µM.
Turning to `Cc1ccc(NC(=O)c2ccc(CN3CCN(C)CC3)cc2)cc1Nc1nccc(-c2cccnc2)n1` [Imatinib (Gleevac®)], in the data set on NCI-60 panel [1], the “Potency, Mean TGI50” value was 43 µM and the GI50 was 15 µM.
Regarding `CNC(=O)c1cc(Oc2ccc(NC(=O)Nc3ccc(Cl)c(C(F)(F)F)c3)cc2)ccn1` [Sorafenib], the EC50 in the data set with Huh-7 [2] was found to be 4.2 ± 0.5 µM; with ACHN it was 4 ± 0.5 µM; in the data set on T47D it was 3 ± 0.5 µM; in the data set on SKBR3, 6.5 ± 0.5 µM; in the data set with PC-3, 5.5 ± 0.8 µM. Further, the “lowest level at which caspase activation was observable” value with Huh-7 [3] (Huh-7, 72-h incubation) amounted to 0.1 µM; in the data set with HepG2 [7] (HepG2, 72-h incubation), 0.1 µM. Also, the “effect of Z-VAD-FMK on compound-induced cell death” value in the data set on HepG2 cells [4] is “no protective effect”. Also, the values for the IC50 (at Raf-1 kinase; in data set [5]) were […] and 12 nM, respectively. Besides, the “mitochondrial membrane depolarization and release of AIF” value with HepG2 cells [6] was “observed”. Besides, the “Potency, Mean TGI50” value with NCI-60 panel [1] was 6.0 µM. In the data set with NCI-60 panel [1], the GI50 is 1.9 µM.
As for `CCN(CC)CCNC(=O)c1c(C)[nH]c(/C=C2\C(=O)Nc3ccc(F)cc32)c1C` [Sunitinib], the EC50 in the data set on Huh-7 [2] is 8 ± 0.9 µM; with ACHN, 8 ± 1 µM; with T47D, 12 ± 1 µM; in the data set with SKBR3, 10 ± 0.9 µM; in the data set on PC-3 it was 8 ± 0.5 µM; with HepG2 [8] (Homo sapiens, HepG2, 72 h, read-out: EC50 cell viability, Liver HepG2) it was 7.5 ± 0.8 µM. In the data set on NCI-60 panel [1], the “Potency, Mean TGI50” value was 9.6 µM. The GI50 in the data set on NCI-60 panel [1] was 2.2 µM.
In the case of `CNC(=O)c1cc(O[C@H]2CC[C@H](NC(=O)Nc3ccc(Cl)c(C(F)(F)F)c3)CC2)ccn1` [t-CUPM], the “effect on cell cycle progression” value with HepG2 cells [9] is recorded as “arrest in G0/G1 transition”. Further, the “loss in the activity toward oncogenic b-Raf (V600E) kinase” value in [10] was 40 fold. For the same molecule, the “caspase 3/7 induction” value is given as “levels of caspase induction similar to sorafenib” in the data set with Huh-7 [3] (Huh-7, 25 μM, 72-h incubation) and “levels of caspase induction similar to sorafenib” with HepG2 [7] (HepG2, 25 μM, 72-h incubation). For the same molecule, the “effect of Z-VAD-FMK on compound-induced cell death” value in the data set on HepG2 cells [4] is recorded as “no protective effect”. The IC50 at Raf-1 kinase was 75 nM. Further, the “mitochondrial membrane depolarization and release of AIF” value in the data set on HepG2 cells [6] is “observed”. The “kinase inhibitory activity toward EPHA1” value at EPHA1 was “reduced its kinase inhibitory activity”. Further, the GI50 in the data set on KM12 (colon cancer) was found to be 640 nM; in the data set on NCI-60 panel [11] (read-out: Potency, Mean GI50) it was 9 µM. For the same molecule, in the data set with NCI-60 panel [11], the “Potency, Mean TGI50” value came out at 34 µM. In addition, the “EC50 relative to that of sorafenib” value in the data set on HepG2 [8] (cell viability, hepatoma cell lines HepG2 and Huh-7) is listed as “< twofold”. Moreover, on FGFR2, the “kinase inhibitory activity toward FGFR2” value is on record as “reduced its kinase inhibitory activity”. In the data set with STAT3 phosphorylation, the “suppression of STAT3 phosphorylation” value is “not as effective as sorafenib”. Besides, the “Cmax compared with sorafenib” value in [12] is given as “higher Cmax”. Moreover, in data set [12] (0.5 to 48 h), the “AUCt compared with sorafenib” value is reported as “significantly higher AUCt”. In addition, the “blood levels relative to sorafenib” value in data set [12] (from 0.5 to 48 h) is “tenfold”.
